Assay results: the NIST ThermoML archive (doi:10.1016/j.jct.2015.12.029)

Assay: mn = molality of the nth substance listed, in mol/kg
Conditions: 100 kPa, Liquid; for molar conductivity: Alternating current cell with electrodes; for mass density: Vibrating tube method, m1 = 0.009397

CCn1cc[n+](C)c1.F[B-](F)(F)F [1-ethyl-3-methylimidazolium tetrafluoroborate] + CCCCO
molar conductivity [S·m2/mol]
Conditions | 283.15 K | 288.15 K | 293.15 K | 298.15 K | 303.15 K | 308.15 K | 313.15 K | 318.15 K
m1 = 3.974e-05 | 0.00127 | 0.00144 | 0.00165 | 0.00188 | 0.00213 | 0.002402 | 0.00268 | 0.003
m1 = 6.936e-05 | 0.001204 | 0.00138 | 0.00158 | 0.0018 | 0.00203 | 0.00228 | 0.00255 | 0.00284
m1 = 0.0001047 | 0.00115 | 0.00132 | 0.001505 | 0.00172 | 0.00193 | 0.00217 | 0.00242 | 0.00269
m1 = 0.0001865 | 0.00106 | 0.00121 | 0.00138 | 0.00157 | 0.00177 | 0.00198 | 0.0022 | 0.00244
m1 = 0.0002945 | 0.000977 | 0.00111 | 0.00127 | 0.00144 | 0.00162 | 0.00181 | 0.00201 | 0.00222
m1 = 0.0004005 | 0.000913 | 0.00104 | 0.00119 | 0.00134 | 0.00151 | 0.00169 | 0.00187 | 0.00206
m1 = 0.000688 | 0.000802 | 0.000915 | 0.00104 | 0.00117 | 0.00131 | 0.00146 | 0.00162 | 0.00178
m1 = 0.0009724 | 0.000729 | 0.00083 | 0.000943 | 0.00106 | 0.00119 | 0.00133 | 0.00147 | 0.00161
m1 = 0.001464 | 0.000642 | 0.000733 | 0.000833 | 0.000942 | 0.00106 | 0.00117 | 0.00129 | 0.00142
m1 = 0.001942 | 0.000597 | 0.000668 | 0.000762 | 0.000859 | 0.000961 | 0.00107 | 0.00118 | 0.00129
m1 = 0.002839 | 0.000519 | 0.000592 | 0.000671 | 0.000759 | 0.000848 | 0.000941 | 0.00103 | 0.00114

Conditions | mass density [kg/m3]
283.15 K | 817.716
288.15 K | 813.954
293.15 K | 810.164
298.15 K | 806.357
303.15 K | 802.519
308.15 K | 798.653
313.15 K | 794.75
318.15 K | 790.804
